# Laboratory results as given in patent publication US20210087188A1, “5,6-DIHYDRO-1 1H-INDOLO{2,3-B}QUINOLIN- 11-ONE COMPOUNDS AS ALK INHIBITORS” (THE REGENTS OF THE UNIVERSITY OF MICHIGAN, priority 2018, published 2021).
# pIC50: −log10 of the molar value. Where a name gives a salt, the structure may show the parent alone.
# Target: T1, wild-type human ALK protein (cytoplasmic domain, amino acid 1058-1620, N-terminal GST-fusion) (Homo sapiens, UniProt Q9UM73)
# T1 construct: The cytoplasmic domain (amino acid 1058-1620) of wild-type human ALK protein; GST (N); purchased Carna Biosciences, Inc (Japan)
# Assay: Enzymatic inhibition assay (time-resolved fluorescence, peptide substrate phosphorylation)
# Format: biochemical
# Details: ATP 100 μM, 30 min pre-incubation, 90 min reaction, read-out: WT IC50
# Protocol: Enzymatic Inhibition Assay
# The cytoplasmic domain (amino acid 1058-1620) of wild-type human ALK protein expressed as N-terminal GST-fusion protein was purchased from Carna Biosciences, Inc (Japan). Compound solution (2.5 μL) and 5 μL of protein solution were added into a black low volume 384 well microtiter plate which was incubated for 30 minutes with gentle shaking at room temperature, followed by adding 2.5 μL of fluorescently labeled peptide substrate and ATP mixture solution. The kinase reaction was performed in 50 mM HEPES (pH 7.5) with 1 mM EGTA, 1 mM MgCl2, and 2 mM DTT, 0.01% Tween-20 added immediately prior to the assay. Final concentrations of ATP, substrates, and DMSO were 100 μM, 20 nM, and 0.5%, respectively. The final ALK concentrations were […]. The reaction was allowed to proceed for 90 minutes in the dark with gentle shaking at rt after which 10 μL of 20 mM EDTA and 2 nM Eu-W1024 anti-phosphotyrosine antibody (PT66) mixture solution in the detection buffer from the manufacturer was added to terminate the reaction and detect the phosphorylation of the peptide substrate. The final mixture was incubated in the dark for 1 h before the plate was read on a Tecan Infinite M-1000 multi-mode plate reader (Tecan, Durham N.C.) with an excitation wavelength of 320 nm. Emission intensities were measured at both 620 and 665 nm with the intensity ratio between 665 and 620 nm corresponding to the peptide substrate phosphorylation. IC50 values of inhibitors were obtained by fitting the ratio of 665/620 nm vs inhibitor concentrations in a sigmoidal dose-response curve (variable slope) with a non-linear regression.
# T1 sequence (Q9UM73 1058-1620): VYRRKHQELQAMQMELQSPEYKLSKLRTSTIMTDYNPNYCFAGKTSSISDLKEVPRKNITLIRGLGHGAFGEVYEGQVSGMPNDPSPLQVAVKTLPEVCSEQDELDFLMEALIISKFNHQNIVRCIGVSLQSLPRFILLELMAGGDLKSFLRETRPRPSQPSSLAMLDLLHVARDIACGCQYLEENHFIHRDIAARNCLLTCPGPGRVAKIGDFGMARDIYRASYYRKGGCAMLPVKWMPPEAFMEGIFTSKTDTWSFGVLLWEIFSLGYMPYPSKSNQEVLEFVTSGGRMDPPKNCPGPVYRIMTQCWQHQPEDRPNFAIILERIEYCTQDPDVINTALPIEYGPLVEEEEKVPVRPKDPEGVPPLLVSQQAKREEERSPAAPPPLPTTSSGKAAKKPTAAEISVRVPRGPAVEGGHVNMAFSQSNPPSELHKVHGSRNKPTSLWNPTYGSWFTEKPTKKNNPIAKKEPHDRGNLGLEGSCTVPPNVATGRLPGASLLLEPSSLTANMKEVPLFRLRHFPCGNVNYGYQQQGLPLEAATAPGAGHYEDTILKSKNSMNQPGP
row,pIC50,Structure (SMILES)
1,9.24,"CC(C)Oc1c(N2C[C@@H](C)N(C)[C@@H](C)C2)cc2c(c1F)c(=O)c1c3ccc(C#N)cc3[nH]c1n2C(C)C [compound 3, 1-fluoro-2-isopropoxy-5-isopropyl-11-oxo-3-(cis-3,4,5-trimethylpiperazin-1-yl)-6,11-dihydro-5H-indolo[2,3-b]quinoline-8-carbonitrile]"
2,8.82,"CC(C)Oc1c(N2CCN(C3CCOCC3)CC2)cc2c(c1F)c(=O)c1c3ccc(C#N)cc3[nH]c1n2C(C)C [compound 2, 1-fluoro-2-isopropoxy-5-isopropyl-11-oxo-3-(4-(tetrahydro-2H-pyran-4-yl)piperazin-1-yl)-6,11-dihydro-5H-indolo[2,3-b]quinoline-8-carbonitrile]"
3,8.11,"CC(C)Oc1cc2c(=O)c3c4ccc(C#N)cc4[nH]c3n(C(C)C)c2c(F)c1N1C[C@@H](C)N(C)[C@@H](C)C1 [compound 11, 4-fluoro-2-isopropoxy-5-isopropyl-11-oxo-(cis-3,4,5-trimethylpiperazin-1-yl)-6,11-dihydro-5H-indolo[2,3-b]quinoline-8-carbonitrile (TFA salt)]"
4,7.77,"COCCOc1cc2c(=O)c3c4ccc(C#N)cc4[nH]c3n(C(C)C)c2c(F)c1N1C[C@@H](C)N(C)[C@@H](C)C1 [compound 10, 4-f1uoro-5-isopropyl-2-(2-methoxyethoxy)-11-oxo-3-(cis-3,4,5-trimethylpiperazin-1-yl)-6,11-dihydro-5H-indolo[2,3-b]quinoline-8-carbonitrile (TFA salt)]"
5,9.08,"CC(C)Oc1c(N2CCN(C(C)C)CC2)cc2c(c1F)c(=O)c1c3ccc(C#N)cc3[nH]c1n2C(C)C [compound 4, 1-fluoro-2-isopropoxy-5-isopropyl-3-(4-isopropylpiperazin-1-yl)-11-oxo-6,11-dihydro-5H-indolo[2,3-b]quinoline-8-carbonitrile]"
6,8.27,"COc1c(N2CCN(C3COC3)CC2)cc2c(c1F)c(=O)c1c3ccc(C#N)cc3[nH]c1n2C(C)C [compound 6, 1-fluoro-5-isopropyl-2-methoxy-3-(4-(oxetan-3-yl)piperazin-1-yl)-11-oxo-6,11-dihydro-5H-indolo[2,3-b]quinoline-8-carbonitrile]"
7,8.85,"COc1c(N2CCN(C3CCOCC3)CC2)cc2c(c1F)c(=O)c1c3ccc(C#N)cc3[nH]c1n2C(C)C [compound 7, 1-fluoro-5-isopropyl-2-methoxy-11-oxo-3-(4-(tetrahydro-2H-pyran-4-yl)piperazin-1-yl)-6,11-dihydro-5H-indolo[2,3-b]quinoline-8-carbontrile]"
8,9.28,"COc1c(N2C[C@@H](C)N(C)[C@@H](C)C2)cc2c(c1F)c(=O)c1c3ccc(C#N)cc3[nH]c1n2C(C)C [compound 8, 1-fluoro-5-isopropyl-2-methoxy-11-oxo-3-(cis-3,4,5-trimethylpiperazin-1-yl)-6,11-dihydro-5H-indolo[2,3-b]quinoline-8-carbonitrile]"
9,8.37,"CC(C)Oc1c(N2CCN(C3COC3)CC2)cc2c(c1F)c(=O)c1c3ccc(C#N)cc3[nH]c1n2C(C)C [compound 5, 1-fluoro-2-isopropoxy-5-isopropyl-3-(4-(oxetan-3-yl)piperazin-1-yl)-11-oxo-6,11-dihydro-5H-indolo[2,3-b]quinoline-8-carbonitrile]"
10,8.62,"CC(C)Oc1c(N2CCC(N3CCOCC3)CC2)cc2c(c1F)c(=O)c1c3ccc(C#N)cc3[nH]c1n2C(C)C [Cpd. No. 1, 1-fluoro-2-isopropoxy-5-isopropyl-3-(4-morpholinopiperidin-1-yl)-11-oxo-6,11-dihydro-5H-indolo[2,3-b]quinoline-8-carbonitrile]"
11,7.26,"COCCOc1cc2c(=O)c3c4ccc(C#N)cc4[nH]c3n(C(C)C)c2c(F)c1N1CCN(C2CCOCC2)CC1 [compound 9, 4-fluoro-5-isopropyl-2-(2-methoxyethoxy)-11-oxo-3-(4-(tetrahydro-2H-pyran-4-yl)piperazin-1-yl)-6,11-dihydro-5H-indolo[2,3-b]quinoline-8-carbonitrile (TFA salt)]"
